Experiment [1] deals with T1, hNAAA (Homo sapiens (Human), UniProt Q02083). Briefly: Fluorescence-based NAAA inhibition assay with fluorogenic substrate PAMCA.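 On all read-outs here: compound preincubated 15 min at room temperature with hNAAA, then PAMCA added at 5 µM, reacted 120 min at 37 °C, AMC release read by fluorescence (ex 360, em 460 nm).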 The settings on record: for IC50: read-out: NAAA Inhibition IC50 μM, purified hNAAA, PAMCA 5 μM, pH 4.5.
Protocol: For three point concentration inhibition assays with hNAAA the following procedure is used. […] These samples are allowed to incubate for 15 min at room temperature and then 10 μL of a PAMCA stock solution in DMSO (final PAMCA concentration [5 μM]) was added. After 5 minutes of agitation on a shaking plate, the reaction is allowed to proceed at 37° C. for 120 minutes, with fluorescence readings taken every 10 minutes at a wavelength of 460 nm (using an excitation wavelength of 360 nm) on a Synergy HT Plate Reader using Gen5 software from Bio-Tek. The enzyme activity is calculated by converting the relative fluorescence units to AMC formed, using a standard curve of AMC. […] The assay procedure used is the same as the three point assay. […] After 5 minutes of agitation on a shaking plate, the reaction is allowed to proceed at 37° C. for 120 minutes Inhibition constants are calculated using pro Fit software (Quantum Soft, Uetikon am See, Switzerland) and a Levenberg-Marquardt algorithm.
For three point concentration inhibition assays with hNAAA the following procedure is used. […] These samples are allowed to incubate for 15 min at room temperature and then 10 μL of a PAMCA stock solution in DMSO (final PAMCA concentration [5 μM]) was added. After 5 minutes of agitation on a shaking plate, the reaction is allowed to proceed at 37° C. for 120 minutes, with fluorescence readings taken every 10 minutes at a wavelength of 460 nm (using an excitation wavelength of 360 nm) on a Synergy HT Plate Reader using Gen5 software from Bio-Tek. The enzyme activity is calculated by converting the relative fluorescence units to AMC formed, using a standard curve of AMC.
The assay procedure used is the same as the three point assay. […] After 5 minutes of agitation on a shaking plate, the reaction is allowed to proceed at 37° C. for 120 minutes. Inhibition constants are calculated using pro Fit software (Quantum Soft, Uetikon am See, Switzerland) and a Levenberg-Marquardt algorithm.
Experiment [2] deals with TNBS-induced colitis. Briefly: TNBS-induced colitis in mice. Type of experiment: in vivo. Here is the method:
NAAA inhibitor Example 4 (10 mg/kg bid, ip) *p<0.05 versus the TNBS untreated group.
PEA (10 mg/kg) and NAAA inhibitor Example 4 (AM; 10 mg/kg bid, ip). Mice were sacrificed on day 3 after administration. Effects of PEA and Example 4 on colon weight/length ratio, feces and MPO activity, mRNA expression of F4-80, CD11b, IL-12, TNF-α, MCP-1 and IL-1β expression measured by ELISA. #p<0.05; ##p<0.005; ###p<0.001 versus control mice; *p<0.05 versus the TNBS-untreated group.
TNBS-induced colitis is accompanied by increased pro-inflammatory cytokines expression in the liver and brain. Effects of PEA administration and NAAA inhibition with Example 4 (10 mg/kg b.i.d) on pro-inflammatory cytokines expression in (A) the liver and (B) brain. Results are expressed as mean±SEM with n=10mice/group. *p<0.05; **p<0.005; ***p<0.001 versus the TNBS untreated group.
Applicants also studied the compound of Example 4 in animal models of trinitrobenzene sulfonic acid (TNBS)- and dextran sodium sulfate (DSS)-induced colitis. This study aimed to investigate the effects of inhibiting NAAA responsible for PEA hydrolysis in colon inflammation in order to propose a potential therapeutic target for inflammatory bowel diseases. PEA is a known anti-inflammatory compound with analgesic, neuroprotective and anti-allergic properties, and was recently shown to exert PPARα dependent beneficial effects on colon inflammation [Laboratory Investigation; a Journal of Technical Methods and Pathology. 2004; 84: 1643-54].

The target in experiment [3] is T1, hNAAA. Briefly: Inhibition kinetics of hNAAA (pre-incubation, Lineweaver-Burk plot, rapid dilution). In kind it is biochemical. As to the method:
The curves represent 15 minutes (filled circles, solid line) and 3 hours (open circles, dotted line) preincubation of hNAAA with NAAA inhibitor Example 4.
Example 4 inhibition kinetics of hNAAA (reversible or irreversible) was investigated using two methods: (1) Short (15 min) and long (180 min) pre-incubation of the inhibitor and enzyme prior to addition of N-(4-methyl coumarin) palmitamide (PAMCA) substrate (FIG. 1). Example's 4 inhibition concentration (IC50) was unaffected by longer pre-incubation of hNAAA with 4.

[4] abbreviates: 10 mg/kg bid, ip, sacrificed day 3.

pIC50: −log10 of the molar value. Where two headings read alike, the source gives them in different places.

T1 sequence (Q02083 29-125): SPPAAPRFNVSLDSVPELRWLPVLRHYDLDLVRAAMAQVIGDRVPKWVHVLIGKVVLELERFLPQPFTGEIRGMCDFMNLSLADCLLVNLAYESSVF
T1 sequence (Q02083 126-359): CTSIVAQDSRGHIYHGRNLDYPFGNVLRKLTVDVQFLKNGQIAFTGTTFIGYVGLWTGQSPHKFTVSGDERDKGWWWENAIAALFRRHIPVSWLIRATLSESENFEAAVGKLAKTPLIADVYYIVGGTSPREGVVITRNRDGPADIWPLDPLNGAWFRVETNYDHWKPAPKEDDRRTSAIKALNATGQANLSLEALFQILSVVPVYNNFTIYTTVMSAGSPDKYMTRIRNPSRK

Turning to `S=C=NCCCCCCCCCCc1ccccc1` [Example 4, (10-Isothiocyanatodecyl)benzene], in experiment [1], the pIC50 was 7.00 to 8.00. Besides, the “Pro-inflammatory cytokines and chemokines expression in the liver and brain” value in experiment [2] (10 mg/kg b.i.d, liver and brain) is recorded as “decreased”. For the same compound, the “PEA levels in the colon” value in experiment [2] (10 mg/kg bid, ip, TNBS-induced colitis) is on record as “increased”. In experiment [2] (10 mg/kg bid, ip, colon), the “Expression of pro-inflammatory cytokines and chemokines in colon” value is on record as “reduced”; the “Leukocyte infiltration and activation (MPO activity, F4-80 and CD11b expression)” value was “reduced”. Besides, in experiment [2] (setting [4]), the “All measured parameters of colon inflammation” value is given as “decreased”, the Colon weight/length ratio entry is “reduced” and the “Weight of the cecal content” value is reported as “reduced”. Further, the “Effect of longer pre-incubation on IC50” value in experiment [3] (15 min vs 180 min pre-incubation of inhibitor and enzyme before PAMCA) was “unaffected”. The “Type of inhibition (Lineweaver-Burk plot)” value in experiment [3] (PAMCA at different concentrations, inhibitor 50 nM) is “competitive type inhibitor”. Besides, in experiment [3] (conclusion from pre-incubation and rapid dilution), the “Mode of inhibition (reversibility)” value is “reversible and non-covalent inhibitor”. Also, the “Recovery of enzyme activity in rapid dilution experiment” value in experiment [3] (dilution to inhibitor concentration below IC50) is on record as “fully recovered”.
As to `COc1cccc(-c2ccc(COC3(C)CN(C#N)C3)cc2)c1` [Example 95, 3-((3′-Methoxy-[1,1′-biphenyl]-4-yl)methoxy)-3-methylazetidine-1-carbonitrile], in experiment [1], the pIC50 is 7.00 to 8.00.
As for `COc1cccc(-c2ccc(COC3(c4ccccc4)CN(C#N)C3)cc2)c1` [Example 96, 3-((3′-Methoxy-[1,1′-biphenyl]-4-yl)methoxy)-3-phenylazetidine-1-carbonitrile], the pIC50 in experiment [1] is 7.00 to 8.00.
`N#CN1CC(OCc2ccc(-c3ccc4c(c3)OCO4)cc2)(c2ccccc2)C1` [Example 97, 3-((4-(Benzo[d][1,3]dioxol-5-yl)benzyl)oxy)-3-phenylazetidine-1-carbonitrile] had a pIC50 in experiment [1] of 7.00 to 8.00.
Compound `N#CN1CC(OCc2ccc(-c3ccc4c(c3)OCCO4)cc2)(c2ccccc2)C1` [Example 98, 3-((4-(2,3-Dihydrobenzo[b][1,4]dioxin-6-yl)benzyl)oxy)-3-phenylazetidine-1-carbonitrile] gave a pIC50 in experiment [1] of 7.00 to 8.00.
For the compound `N#CN1CC(OC(c2ccccc2)c2ccc(Br)cc2)C1` (centres unmarked) [Example 99, 3-((4-Bromophenyl)(phenyl)methoxy)azetidine-1-carbonitrile], the pIC50 in experiment [1] is 7.00 to 8.00.
Still for that read-out and setting: in the case of `COc1cccc(-c2ccc(C(OC3CN(C#N)C3)c3ccccc3)cc2)c1` (centres unmarked) [Example 100, 3-((3′-Methoxy-[1,1′-biphenyl]-4-yl)(phenyl)methoxy)azetidine-1-carbonitrile] it was 7.00 to 8.00; in that of `Cc1noc(C)c1-c1ccc(C(OC2CN(C#N)C2)c2ccccc2)cc1` (centres unmarked) [Example 101, 3-((4-(3,5-Dimethylisoxazol-4-yl)phenyl)(phenyl)methoxy)azetidine-1-carbonitrile], 7.00 to 8.00.
In turn, `Cn1cc(-c2ccc(C(OC3CN(C#N)C3)c3ccccc3)cc2)cn1` (centres unmarked) [Example 102, 3-((4-(1-Methyl-1H-pyrazol-4-yl)phenyl)(phenyl)methoxy)azetidine-1-carbonitrile] showed a pIC50 in experiment [1] of 7.00 to 8.00.
The same measure, in the same setting: then `CN(Cc1ccc(-c2ccccc2)cc1)C1CN(C#N)C1` [Example 103, 3-(([1,1′-Biphenyl]-4-ylmethyl)(methyl)amino)azetidine-1-carbonitrile], with 7.00 to 8.00.
In experiment [1], `N#CN1CC[C@H](OCc2ccc(-c3ccccc3)cc2)C1` [Example 104, (S)-3-([1,1′-Biphenyl]-4-ylmethoxy)pyrrolidine-1-carbonitrile] had a pIC50 of 6.00 to 6.96.
Take `N#CN1CC[C@@H](OCc2ccc(-c3ccccc3)cc2)C1` [Example 105, (R)-3-([1,1′-biphenyl]-4-ylmethoxy)pyrrolidine-1-carbonitrile]: in experiment [1], the negative logarithm of the IC50 (pIC50) was 7.00 to 8.00.
Consider `N#CN1CCC(Oc2ccc(Br)cc2)CC1` [Example 106, 4-(4-Bromophenoxy)piperidine-1-carbonitrile], for which the IC50 in experiment [1] was greater than 1 µM.
For the compound `N#C[C@H]1C[C@H](OCc2ccc(-c3ccccc3)cc2)C1` [Example 107, (1R,3R)-3-([1,1′-Biphenyl]-4-ylmethoxy)cyclobutane-1-carbonitrile], in experiment [1], the IC50 is greater than 1 µM.
As for `N#C[C@H]1C[C@@H](OCc2ccc(-c3ccccc3)cc2)C1` [Example 108, (1S,3S)-3-([1,1′-biphenyl]-4-ylmethoxy)cyclobutane-1-carbonitrile], the IC50 in experiment [1] was greater than 1 µM.
On the same count and under the same terms, then `COc1cccc(-c2ccc(COC3CN(CC#N)C3)cc2)c1` [Example 109, 2-(3-((3′-Methoxy-[1,1′-biphenyl]-4-yl)methoxy)azetidin-1-yl)acetonitrile], with greater than 1 µM; and `N#Cc1ccc(OCc2ccc(Oc3ccccc3)cc2Br)cn1` [Example 110, 5-((2-Bromo-4-phenoxybenzyl)oxy)picolinonitrile], with greater than 1 µM; and `N#Cc1ccc(OCc2ccc(-c3ccccc3)cc2)cn1` [Example 111, 5-([1,1′-Biphenyl]-4-ylmethoxy)picolinonitrile], with greater than 1 µM.
Same read-out and setting: in the case of `N#Cc1ncc(OCc2ccc(-c3ccccc3)cc2)cc1F` [Example 112, 5-([1,1′-Biphenyl]-4-ylmethoxy)-3-fluoropicolinonitrile] it was greater than 1 µM; in that of `N#Cc1ncc(F)cc1OCc1ccc(-c2ccccc2)cc1` [Example 113, 3-([1,1′-Biphenyl]-4-ylmethoxy)-5-fluoropicolinonitrile], greater than 1 µM; in that of `N#Cc1cccc(C(=O)OCCCCCc2ccccc2)n1` [Example 114, 5-phenylpentyl 6-cyanopicolinate], greater than 1 µM.
For `N#Cc1ncc(OCCCCCCc2ccccc2)cn1` [Example 115, 5-((6-phenylhexyl)oxy)pyrimidine-2-carbonitrile], the pIC50 in experiment [1] was 6.00 to 6.96.
On to `N#Cc1ncc(OCCCCCc2ccccc2)cn1` [Example 116, 5-((5-phenylpentyl)oxy)pyrimidine-2-carbonitrile], for which, in experiment [1], the IC50 is greater than 1 µM.
Take `N#Cc1ncc(OCCOCCOCc2ccccc2)cn1` [Example 117, 5-(2-(2-(benzyloxy)ethoxy)ethoxy)pyrimidine-2-carbonitrile]: the half-inhibitory concentration (IC50) in experiment [1] is greater than 1 µM.
